In general, IC50 refers to the point on the concentration scale where inhibition reaches its midpoint.

In patent publication US20190127366A1 (LifeSci Pharmaceuticals, Inc., priority 2015, published 2019) one finds IC50 data, which are given here for 27 compounds.

Bounds are passed on as bounds.

T1 sequence (P00746 26-253): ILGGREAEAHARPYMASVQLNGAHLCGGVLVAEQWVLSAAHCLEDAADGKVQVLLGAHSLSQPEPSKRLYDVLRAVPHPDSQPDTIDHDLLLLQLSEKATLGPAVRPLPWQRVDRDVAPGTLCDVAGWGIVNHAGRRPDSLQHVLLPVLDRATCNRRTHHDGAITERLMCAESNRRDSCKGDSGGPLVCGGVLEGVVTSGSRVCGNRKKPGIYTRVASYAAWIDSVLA

One assay concerns the target T1, human complement factor D (Homo sapiens, UniProt P00746).
T1 construct: purchased R&D Systems 1824-SE
The assay is described as follows: In vitro enzyme inhibition (Z-Lys-SBzl/DTNB absorbance assay).
Conditions: not given
Format: biochemical. In a few lines: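 Factor D (6.25 ng/μL before addition) preincubated 5 min RT with compound (8 points from 50 μM, 6-fold, 0.5% DMSO final) in 50 mM Tris/HCl pH 7.5, 1 M NaCl, then Z-Lys-SBzl/DTNB added (200 μM each before addition). A405 read kinetically every 30 s for 60 min; IC50 from variable-slope fit, controls with and without enzyme.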
Take `CC(=O)N1CCN(C(=O)Cn2nc(C(N)=O)c3ccccc32)[C@H](C(=O)Nc2cccc(C(F)(F)F)n2)C1` [Example 30, (S)-1-(2-(4-acetyl-2-((6-(trifluoromethyl)pyridin-2-yl)carbamoyl)piperazin-1-yl)-2-oxoethyl)-1H-indazole-3-carboxamide]: the IC50 was in the range of 1000 to 10000 nM.

Still in this assay, the particulars now being: Complement Factor D (R&D Systems), substrate Z-Lys-SBzl, A405 nm; read-out: CFD IC50.
As to `CC(=O)c1nn(CC(=O)N2[C@@H]3CC[C@@H](C3)[C@H]2C(=O)Nc2cccc(Cl)n2)c2ccc(F)cc12` [Example 91, (1R,3S,4S)-2-(2-(3-acetyl-5-fluoro-1H-indazol-1-yl)acetyl)-N-(6-chloropyridin-2-yl)-2-azabicyclo[2.2.1]heptane-3-carboxamide], the IC50 is 100 to 1000 nM.
The same measure, in the same setting: the result for `NC(=O)c1nn(CC(=O)N2[C@H](C(=O)NCc3cccc(Cl)n3)C[C@@H]3CCC[C@@H]32)c2ccccc12` [Example 160, 1-(2-((2S,3aS,6aS)-2-(((6-chloropyridin-2-yl)methyl)carbamoyl)hexahydrocyclopenta[b]pyrrol-1(2H)-yl)-2-oxoethyl)-1H-indazole-3-carboxamide] reads 1000 to 10000 nM; that for `NC(=O)c1nn(CC(=O)N2[C@@H]3CC[C@@H](C3)[C@H]2C(=O)NCc2c(C(=O)O)ccc(Cl)c2F)c2ccccc12` [Example 117, 2-(((1R,3S,4S)-2-(2-(3-carbamoyl-1H-indazol-1-yl)acetyl)-2-azabicyclo[2.2.1]heptane-3-carboxamido)methyl)-4-chloro-3-fluorobenzoic acid], 1000 to 10000 nM.
Still for that read-out and setting: the result for `NC(=O)c1nn(CC(=O)N2[C@H](C(N)=O)C[C@H]2C(=O)NCc2cccc(Cl)c2F)c2ccccc12` (relative stereo) [Example 196, trans-1-(2-(3-carbamoyl-1H-indazol-1-yl)acetyl)-N2-(3-chloro-2-fluorobenzyl)azetidine-2,4-dicarboxamide] reads 1000 to 10000 nM; that for `NC(=O)c1nn(CC(=O)N2[C@@H]3CC[C@@H](C3)[C@H]2C(=O)Nc2ncccc2Cl)c2ccccc12` [Example 54, 1-(2-((1R,3S,4S)-3-((3-chloropyridin-2-yl)carbamoyl)-2-azabicyclo[2.2.1]heptan-2-yl)-2-oxoethyl)-1H-indazole-3-carboxamide], more than 10000 nM.
The same measure, in the same setting: then `NC(=O)c1nn(CC(=O)N2[C@@H]3CC[C@@H](C3)[C@H]2C(=O)NC(CCO)c2cccc(Cl)c2F)c2ccccc12` (stereo partly drawn) [Example 146, 1-(2-((1R,3S,4S)-3-((1-(3-chloro-2-fluorophenyl)-3-hydroxypropyl)carbamoyl)-2-azabicyclo[2.2.1]heptan-2-yl)-2-oxoethyl)-1H-indazole-3-carboxamide], with 1000 to 10000 nM; and `COc1cccc(NC(=O)[C@@H]2[C@H]3CC[C@H](C3)N2C(=O)Cn2nc(C(N)=O)c3ccccc32)n1` [Example 50, 1-(2-((1R,3S,4S)-3-((6-methoxypyridin-2-yl)carbamoyl)-2-azabicyclo[2.2.1]heptan-2-yl)-2-oxoethyl)-1H-indazole-3-carboxamide], with 1000 to 10000 nM; and `NC(=O)c1nn(CC(=O)N2[C@@H]3CC[C@@H](C3)[C@H]2C(=O)Nc2ccc(CO)c(Cl)n2)c2ccccc12` [Example 108, 1-(2-((1R,3S,4S)-3-((6-chloro-5-(hydroxymethyl)pyridin-2-yl)carbamoyl)-2-azabicyclo[2.2.1]heptan-2-yl)-2-oxoethyl)-1H-indazole-3-carboxamide], with 1000 to 10000 nM.
On to `NC(=O)c1nn(CC(=O)N2[C@@H]3CC[C@@H](C3)[C@H]2C(=O)NCc2cccc(Cl)c2F)c2ccncc12` [Example 98, 1-(2-((1R,3S)-3-((3-chloro-2-fluorobenzyl)carbamoyl)-2-azabicyclo[2.2.1]heptan-2-yl)-2-oxoethyl)-1H-pyrazolo[4,3-c]pyridine-3-carboxamide], for which the IC50 lay within 1000 to 10000 nM.
Still for that read-out and setting: the result for `COc1ccc2c(c1)c(C(N)=O)nn2CC(=O)N1[C@H](C(=O)Nc2cccc(Cl)n2)C[C@@H]2CCC[C@@H]21` [Example 170, 1-(2-((2S,3aS,6aS)-2-((6-chloropyridin-2-yl)carbamoyl)hexahydrocyclopenta[b]pyrrol-1(2H)-yl)-2-oxoethyl)-5-methoxy-1H-indazole-3-carboxamide] reads 100 to 1000 nM.
The same measure, in the same setting: the result for `NC(=O)c1nn(CC(=O)N2[C@H]3CC[C@H](CC3)[C@@H]2C(=O)NCc2cccc(Cl)c2F)c2ccccc12` [Example 148, (1S,3R,4S)-2-(2-(3-carbamoyl-1H-indazol-1-yl)acetyl)-N-(3-chloro-2-fluorobenzyl)-2-azabicyclo[2.2.2]octane-3-carboxamide] reads 1000 to 10000 nM; that for `NC(=O)c1nn(CC(=O)N2[C@@H]3CC[C@@H](C3)[C@H]2C(=O)Nc2cccc(Cl)n2)c2cnccc12` [Example 2, 1-(2-((1R,3S,4S)-3-((6-chloropyridin-2-yl)carbamoyl)-2-azabicyclo[2.2.1]heptan-2-yl)-2-oxoethyl)-1H-pyrazolo[3,4-c]pyridine-3-carboxamide], 100 to 1000 nM.
As to `CN1CCN(C(=O)Cn2nc(C(N)=O)c3ccccc32)[C@H](C(=O)Nc2cccc(Cl)n2)C1` [Example 28, (S)-1-(2-(2-((6-chloropyridin-2-yl)carbamoyl)-4-methylpiperazin-1-yl)-2-oxoethyl)-1H-indazole-3-carboxamide], the IC50 was in the range of 1000 to 10000 nM.
For `CC(O)c1nn(CC(=O)N2CC[C@H]2C(=O)NCc2cccc(Cl)c2F)c2ccccc12` (stereo partly drawn) [Example 193, (2S)-N-(3-chloro-2-fluorobenzyl)-1-(2-(3-(1-hydroxyethyl)-1H-indazol-1-yl)acetyl)azetidine-2-carboxamide], the IC50 was in the range of 1000 to 10000 nM.
On the same count and under the same terms, then `CC(=O)c1nn(CC(=O)N2[C@@H]3CC[C@@H](C3)[C@H]2C(=O)Nc2cccc(Cl)n2)c2ccc(Cl)cc12` [Example 87, (1R,3S,4S)-2-(2-(3-acetyl-5-chloro-1H-indazol-1-yl)acetyl)-N-(6-chloropyridin-2-yl)-2-azabicyclo[2.2.1]heptane-3-carboxamide], with 100 to 1000 nM.
`CC(=O)c1nn(CC(=O)N2[C@@H]3CC[C@@H](C3)[C@H]2C(=O)Nc2cccc(Cl)n2)c2ccc(Br)cc12` [Example 90, (1R,3S,4S)-2-(2-(3-acetyl-5-bromo-1H-indazol-1-yl)acetyl)-N-(6-chloropyridin-2-yl)-2-azabicyclo[2.2.1]heptane-3-carboxamide]: the 50% inhibitory concentration (IC50) lay in the range of 100 to 1000 nM.
Turning to `NC(=O)c1nn(CC(=O)N2[C@@H]3CC[C@@H](C3)[C@H]2C(=O)NCc2cccc(Cl)c2F)c2ccc(CCO)cc12` [Example 132], the IC50 was in the range of 1000 to 10000 nM.
The same measure, in the same setting: then `NC(=O)c1nn(CC(=O)N2CC3CC2(C(=O)Nc2cccc(Cl)c2F)C3)c2ccccc12` [Example 150, 2-(2-(3-carbamoyl-1H-indazol-1-yl)acetyl)-N-(3-chloro-2-fluorophenyl)-2-azabicyclo[2.1.1]hexane-1-carboxamide], with more than 10000 nM.
Still for that read-out and setting: then `NC(=O)c1nn(CC(=O)N2[C@@H]3CC[C@@H](C3)[C@H]2C(=O)Nc2cc(C(F)(F)F)ccn2)c2ccccc12` [Example 55, 1-(2-oxo-2-((1R,3S,4S)-3-((4-(trifluoromethyl)pyridin-2-yl)carbamoyl)-2-azabicyclo[2.2.1]heptan-2-yl)ethyl)-1H-indazole-3-carboxamide], with more than 10000 nM; and `NC(=O)c1nn(CC(=O)N2[C@@H]3CC[C@@H](C3)[C@H]2C(=O)Nc2cnc3ccccc3n2)c2ccccc12` [Example 45, 1-(2-oxo-2-((1R,3S,4S)-3-(quinoxalin-2-ylcarbamoyl)-2-azabicyclo[2.2.1]heptan-2-yl)ethyl)-1H-indazole-3-carboxamide], with 1000 to 10000 nM; and `NC(=O)n1nc(CC(=O)N2[C@@H]3CC[C@@H](C3)[C@H]2C(=O)NCc2cccc(Cl)c2F)c2ccccc21` [Example 100, 3-(2-((1R,3S,4S)-3-((3-chloro-2-fluorobenzyl)carbamoyl)-2-azabicyclo[2.2.1]heptan-2-yl)-2-oxoethyl)-1H-indazole-1-carboxamide], with 100 to 1000 nM.
On the same count and under the same terms, the result for `COc1ccc2c(c1)c(C(N)=O)nn2CC(=O)N1[C@@H]2CC[C@@H](C2)[C@H]1C(=O)Nc1cccc(Cl)n1` [Example 74, 1-(2-((1R,3S,4S)-3-((6-chloropyridin-2-yl)carbamoyl)-2-azabicyclo[2.2.1]heptan-2-yl)-2-oxoethyl)-5-methoxy-1H-indazole-3-carboxamide] reads 1000 to 10000 nM.
As for `NC(=O)c1nn(CC(=O)N2[C@@H]3CC[C@@H](C3)[C@H]2C(=O)NCc2cc(Br)cc(Cl)c2F)c2ccccc12` [Example 109, 1-(2-((1R,3S,4S)-3-((5-bromo-3-chloro-2-fluorobenzyl)carbamoyl)-2-azabicyclo[2.2.1]heptan-2-yl)-2-oxoethyl)-1H-indazole-3-carboxamide], the IC50 lay in the range of 100 to 1000 nM.
Same read-out and setting: then `NC(=O)c1nn(CC(=O)N2[C@H](C(=O)Nc3cccc(Br)n3)C[C@@H]3CCC[C@@H]32)c2ccccc12` [Example 164, 1-(2-((2S,3aS,6aS)-2-((6-bromopyridin-2-yl)carbamoyl)hexahydrocyclopenta[b]pyrrol-1(2H)-yl)-2-oxoethyl)-1H-indazole-3-carboxamide], with 100 to 1000 nM; and `NC(=O)c1nn(CC(=O)N2[C@@H]3CC[C@@H](C3)[C@H]2C(=O)Nc2cncc(Cl)c2)c2ccccc12` [Example 58, 1-(2-((1R,3S,4S)-3-((5-chloropyridin-3-yl)carbamoyl)-2-azabicyclo[2.2.1]heptan-2-yl)-2-oxoethyl)-1H-indazole-3-carboxamide], with 1000 to 10000 nM; and `NC(=O)c1nn(CC(=O)N2[C@H](C(=O)Nc3cccc(Cl)n3)C[C@@H]3CCC[C@@H]32)c2ccc([N+](=O)[O-])cc12` [Example 173, 1-(2-((2S,3aS,6aS)-2-((6-chloropyridin-2-yl)carbamoyl)hexahydrocyclopenta[b]pyrrol-1(2H)-yl)-2-oxoethyl)-5-nitro-1H-indazole-3-carboxamide], with 1000 to 10000 nM.
